We go through nine compounds from US20190328658A1, “ESTROGEN PRODRUGS AND METHODS OF ADMINISTERING ESTROGEN PRODRUGS” (Evestra, Inc., priority 2018, published 2019).

≈ marks a conversion by molar mass, not a printed value.

For series [1] the following is noted: EP '025; cited from earlier work.
Series [2] is described as follows: in vitro release rates of estriol prodrugs from intravaginal rings. It is filed as physicochemical. Particulars: for Burst Release d1 / Burst Release d2 / Average API release d3-d21: ring, API loading 5.0 %, core polymer EVA28/2.5 (E3: EVA26/4.0), 37°C; for Burst Release d1: day 1; for Burst Release d2: day 2; for Average API release d3-d21: days 3-21. On the procedure:
The estriol prodrugs were processed via hot-melt extrusion and subsequent ring closure to intravaginal rings: […] The hot melt extrusion line for processing the estriol containing EVA28 powder consisted of an 18 mm twin screw extruder, equipped with a loss in weight feeder for dosing the drug containing premix into the extruder. Extrusion was performed at low throughputs of approx. 2 kg/h, the temperature profile of the extruder barrels was adjusted to yield a melt temperature of approx. 125° C. After leaving the die, the strands were directly conveyed through a water bath to obtain a fast cooling process and minimize potential strand deformation. As haul-off unit, a strand pelletizer without knives was used to pull and convey the strand accurately through all downstream sections, ensuring homogeneous strand diameters and a […] shape. […] The cross-sectional diameter of the co-extrudate was measured in-line with a laser system (3 laser heads). […] Alternatively, the ring closure was accomplished via an injection molding process equipment, equipped with a 4.0 mm mold (one or multiple cavities), using EVA28 placebo material as injection material. To determine the in vitro release rates, a rotational incubator, operated at 37±0.5° C., is used. The dissolution medium type, the dissolution medium volume and the rotational speed of the used incubator are selected to provide sink conditions.

Series [3] can be described thus: Caco-2 permeability (A-to-B). In kind it is in vitro ADME. Particulars: human; Caco-2, A-to-B, 120 minutes, dosing 5myM. On the procedure: (§1) Caco-2 cells (clone C2BBel) were obtained from American Culture Collection. Cell monolayers were grown to confluence on collagen-coated, microporous membranes in 12-well assay plates. The permeability assay buffer was Hank's balanced salt solution. The buffer in the receiving chamber also contained 1% bovine serum albumin. The dosing solution concentration was 5myMof test article in the assay buffer. Cell monolayers were dosed on the apical side (A-to-B) and incubated at 37° C. with 5% CO2 in a humidified incubator. Samples were taken from the donor and receiver chamber at 120 minutes. All samples were assayed by LC-MS/MS using electrospray ionization. The apparent permeability (Papp) were calculated as follows: […]
(§2) With dCr/dt being the slope of the cumulative concentration in the recover compartment versus time in ny Ms^−1;
(§3) Vr is the volume of the receiver compartment in cm^3
(§4) A is the area of the insert (1.13 cm^2 for 12-well)
For orientation: Caco-2 cells form a polarised layer with tight junctions and transporters.

The next series can be described thus: Log P. In kind it is physicochemical. Conditions: Table 2. The source says: Example 10: Determination of Log p and Permeability Values of Estriol Prodrugs
Series [4] in a line: Solubility in EVA by hot stage microscopy. In kind it is physicochemical. Conditions: for Solubility in EVA28/2.5 at 37° C. (via HSM): EVA28/2.5, hot stage microscopy. From the text: Solubilities in EVA were estimated by hot stage microscopy.
The nature of a further series: physchem. Particulars: 37 °C, water, thermodynamic from solid.
Series [5] has as its system Caco-2 cells (clone C2BBel). Description: Caco-2 permeability (A-to-B). It is filed as in vitro ADME. Particulars: Caco-2. As to the method: as §1, §2, §3, §4
The conditions of series [6]: stated in discussion; cited from earlier work.
For series [7] the following is noted: depending on the model applied; cited from earlier work.
The conditions of series [8]: vaginal or oral application; cited from earlier work.
Series [9] in a line: Solubility in water/medium (shaking 24 hours, HPLC). Conditions: 37 °C, thermodynamic from solid.
Protocol: (§5) Solubilities were determined by shaking (24 hours) an excess of steroid in 20 ml of water/medium at 37° C. Following equilibrium, a portion was passed through a 0,22m-my filter and the steroid concentration in the filtrate was determined by high-performance liquid chromatography.
For series [10] the following is noted: cited from earlier work.

Protocol for physchem: as §5

`CC(=O)O[C@H]1CC[C@H]2[C@@H]3CCc4cc(O)ccc4[C@H]3CC[C@]12C` [17-acetate derivative of estradiol]: the “daily release rate compared to estradiol” value in [1] is listed as “around 3 fold”.

Take `C[C@]12CCC3c4ccc(O)cc4CCC3C1C[C@@H](O)[C@@H]2OC(=O)C1CC1` (stereo partly drawn) [EC537, (16R,17R)-3,16-dihydroxy-7,8,9,11,12,13,14,15,16,17-decahydro-6H-cyclopenta α phenanthren-17-yl cyclopropanecarboxylate]: in [2], the “daily release rate compared to estriol-3-acetate” value is listed as “around 10 fold”, the “Burst Release d1” value was 15521.1 µg, the “Burst Release d2” value turned out to be 6229.4 µg and the “Average API release d3-d21” value was found to be 1785.5 µg/day. Also, in [3], the Papp A→B (usually the apparent permeability from the apical to the basolateral side of a cell layer) at 120 min, 5 µM came out at 24 ×10⁻⁶ cm/s and the recovery at 120 min, 5 µM came to 26%. The logP (in general, the decadic logarithm of the partition coefficient of the neutral form, usually between octanol and water) in “Log P” amounted to 3.55. The “Solubility in EVA28/2.5 at 37° C. (via HSM)” value (“Solubility … (via HSM)” below) in series [4] was 4-5 wt %. In addition, the solubility (in general, the dissolved amount per volume that the medium holds) at 24 h in “physchem” was 4.2 µg/mL (≈ 11.8 µM).

On to `CC(=O)Oc1ccc2c(c1)CCC1C2CC[C@@]2(C)C1C[C@@H](O)[C@@H]2O` (stereo partly drawn) [EC5104, (8xi,9xi,14xi,16α,17β)-16,17-dihydroxyestra-1(10),2,4-trien-3-yl acetate], for which, in series [2], the “Burst Release d1” value came out at 2891.6 µg, the “Burst Release d2” value came to 1322.0 µg and the “Average API release d3-d21” value is 548.1 µg/day. Moreover, in series [3], the apparent permeability from apical to basolateral (Papp A→B) at 120 min, 5 µM came out at 23.7 ×10⁻⁶ cm/s and the recovery at 120 min, 5 µM amounted to 64%. This compound had a logP in “Log P” of 3.02. In [4], the “solubility in EVA compared to estriol” value is “comparable to the estriol solubility in EVA” and the “Solubility … (via HSM)” value came to 0.5 wt %. The compound also returned a solubility at 24 h in “physchem” of 57.8 µg/mL.

`C[C@]12CCC3c4ccc(OC(=O)C5CC5)cc4CCC3C1C[C@@H](O)[C@@H]2O` (stereo partly drawn) [EC5105, (8xi,9xi,14xi,16α,17β)-16,17-dihydroxyestra-1(10),2,4-trien-3-yl cyclopropanecarboxylate]: in [2], the “Burst Release d1” value came out at 4301.1 µg, the “Burst Release d2” value came out at 1369.8 µg and the “Average API release d3-d21” value is 567.3 µg/day. Besides, in series [3], the apical-to-basolateral permeability (Papp A→B) at 120 min, 5 µM worked out at 1.76 ×10⁻⁶ cm/s and the recovery at 120 min, 5 µM turned out to be 3%. Besides, in [5], the “Caco-2 permeability, comparison in words” value is listed as “very low permeability compared to the 17 analog”. Further, in the series “Log P”, the logP is 3.38. Further, the “Solubility … (via HSM)” value in [4] is recorded as 0.5-2 wt %. In “physchem”, the concentration in solution (solubility at 24 h) was 4.9 µg/mL (≈ 13.7 µM).

In [3], `C[C@]12CCC3c4ccc(OC(=O)C5CC5)cc4CCC3C1C[C@@H](O)[C@@H]2OC(=O)C1CC1` (stereo partly drawn) [EC5106, 3,16α,17β-Trihydroxyestra-1,3,5(10)-triene 3,17-biscyclopropane carboxylate] registered a Papp A→B at 120 min, 5 µM of 11.4 ×10⁻⁶ cm/s and a recovery at 120 min, 5 µM of 25%. In “Log P”, the logP was determined as 3.99.

In the case of `C#C[C@]1(O)CC[C@H]2[C@@H]3CCc4cc(O)ccc4[C@H]3CC[C@@]21C` [EE, ethinyl estradiol, reference compound], in series [3], the Papp A→B at 120 min, 5 µM was determined as 42.5 ×10⁻⁶ cm/s and the recovery at 120 min, 5 µM turned out to be 59%. Moreover, the lipophilicity (logP) in “Log P” stood at 4.52.

In turn, `C[C@]12CC[C@@H]3c4ccc(O)cc4CC[C@H]3[C@@H]1CC[C@@H]2O` [Example E2, estradiol, reference compound] gave a recovery at 120 min, 5 µM in [3] of 15%. The compound also registered a logP in the series “Log P” of 4.13. Besides, in [6], the log P (in general, the decadic logarithm of the partition coefficient of the neutral form, usually between octanol and water) was 3.94.

Regarding `C[C@]12CC[C@@H]3c4ccc(O)cc4CC[C@H]3[C@@H]1C[C@@H](O)[C@@H]2O` [Example E3, Estriol], in [2], the “Burst Release d1” value is 665.1 µg, the “Burst Release d2” value came out at 294.5 µg and the “Average API release d3-d21” value was determined as 119.4 µg/day. The “Solubility … (via HSM)” value in series [4] is listed as 0.5-1%. Further, the “log P” value in series [6] is 2.81. The “reduction in activity compared to estradiol” value in series [7] is on record as 10 to 30%. Moreover, the “time after application after which no estriol plasma level above the limit could be determined” value in [8] was 4 to 6 h. Also, the solubility at 24 h in series [9] (water + 2% SLS, aqueous with cosolvent or surfactant or cyclodextrin) stood at 465 µg/mL. This compound also displayed a solubility at 24 h in series [9] (water) of 58.4 µg/mL (≈ 203 µM).

Regarding `CC(=O)Oc1ccc2c(c1)CC[C@@H]1[C@@H]2CC[C@]2(C)[C@@H](O)CC[C@@H]12` [estradiol-3-acetate, estradiol 3-acetate], the “daily release rate compared to estradiol” value in [1] is on record as “above 45 fold”. In [10] (silicone), the “solubility in silicone compared to estradiol” value is given as “around 10 fold”. Also, the “solubility in water compared to estradiol” value in series [10] (water) is reported as “twofold higher”.
